# Measured values as given in patent US4246342A, “Process for the manufacture of pyruvate oxidase, and analytical method and kit for the use of the same” (Toyo Jozo Kabushiki Kaisha, priority 1978, dated 1981).
# Experiments:
# [1] = test system: pyruvate oxidase (B-0668); assay: Effect of several substances added on the enzyme activity; type: biochemical, Streptococcus sp. B-0668; details: 5 mM of the substance added instead of MgCl2 in the assay system; enzyme from B-0668; MgCl2 = 100
# Procedure: (§1) (a) Effect of several substances on the enzyme activity is examined by adding 5 mM of the substance indicated below instead of MgCl2 in the assay system.
# (§2) The assay method of pyruvate oxidase of the present invention uses a reaction mixture as follows: […]
# (§3) The above reaction mixture (1.0 ml) is pre-incubated at 37° C. for 3 minutes. To this solution is added the enzyme solution (20 μl) and incubated at 37° C. for 10 minutes. 0.1 M citrate buffer (pH 6.0, 2 ml) containing 0.1 M EDTA is added to stop the reaction. The violet color formed is measured by colorimetric method at 565 nm.
# (§4) A unit (1 unit, 1 U) of enzyme activity is defined as the activity which generates 1 μmole of hydrogen peroxide per minute.
# [2] = biological target: T1, pyruvate oxidase (IFO-12219) (Aerococcus viridans, UniProt A0ABP2I6X2); assay: as above; type: biochemical, Aerococcus viridans IFO-12219; details: 5 mM of the substance added instead of MgCl2 in the assay system; enzyme from IFO-12219; MgCl2 = 100
# T1 sequence (A0ABP2I6X2 1-592): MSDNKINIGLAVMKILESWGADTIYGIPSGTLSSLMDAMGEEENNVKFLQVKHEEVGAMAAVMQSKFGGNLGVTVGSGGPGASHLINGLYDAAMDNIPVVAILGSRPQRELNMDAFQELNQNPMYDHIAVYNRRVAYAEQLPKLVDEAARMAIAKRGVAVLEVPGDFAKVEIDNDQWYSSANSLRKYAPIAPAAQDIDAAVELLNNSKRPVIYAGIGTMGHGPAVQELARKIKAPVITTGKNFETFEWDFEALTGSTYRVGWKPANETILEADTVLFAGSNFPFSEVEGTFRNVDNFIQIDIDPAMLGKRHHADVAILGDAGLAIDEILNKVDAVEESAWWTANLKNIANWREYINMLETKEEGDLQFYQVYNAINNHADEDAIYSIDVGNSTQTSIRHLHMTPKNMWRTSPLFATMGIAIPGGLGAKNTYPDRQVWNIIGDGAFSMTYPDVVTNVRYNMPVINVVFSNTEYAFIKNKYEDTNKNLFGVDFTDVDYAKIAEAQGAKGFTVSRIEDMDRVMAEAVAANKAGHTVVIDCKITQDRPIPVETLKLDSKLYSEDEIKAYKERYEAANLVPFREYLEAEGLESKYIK
# Procedure: as §1, §2, §3, §4
# [3] = biological target: T2, pyruvate oxidase (IFO-12317) (Aerococcus viridans, UniProt A0ABP2I6X2); assay: as above; type: biochemical, Aerococcus viridans IFO-12317; details: 5 mM of the substance added instead of MgCl2 in the assay system; enzyme from IFO-12317; MgCl2 = 100
# T2 sequence (A0ABP2I6X2 1-592): T1 sequence (A0ABP2I6X2 1-592)
# Procedure: as §1, §2, §3, §4
# [4] = test system: pyruvate oxidase (B-0667); assay: as above; type: biochemical, Pediococcus sp. B-0667; details: 5 mM of the substance added instead of MgCl2 in the assay system; enzyme from B-0667; MgCl2 = 100
# Procedure: as §1, §2, §3, §4
# pyruvate oxidase = assay: Effect of substances on the enzyme, summary statements for the four strains; type: biochemical; details: summary in words; for Effect on the enzyme (inhibited / activated): 5 mM substance; for Requirement of the enzyme for the substance (cofactor / substrate): elimination from the assay system
# Procedure: as §1
# 0.1 M dimethylglutarate-NaOH buffer is used in the case of phosphate elimination.
# The assay method of pyruvate oxidase of the present invention uses a reaction mixture as follows:
# as §3
# [5] = biological target: T2, pyruvate oxidase (IFO-12317); assay: Effect of elimination of a substance from the assay system on the enzyme activity; type: biochemical, Aerococcus viridans IFO-12317; details: enzyme from IFO-12317, no elimination = 100, 0.1 M dimethylglutarate-NaOH buffer for phosphate elimination
# Procedure: (§5) (b) Effect of elimination of the following substance from the assay system on the enzyme activity is shown below. 0.1 M dimethylglutarate-NaOH buffer is used in the case of phosphate elimination.
# as §2, §3, §4
# [6] = test system: pyruvate oxidase (B-0668); assay: as above; type: biochemical, Streptococcus sp. B-0668; details: enzyme from B-0668, no elimination = 100, 0.1 M dimethylglutarate-NaOH buffer for phosphate elimination
# Procedure: as §5, §2, §3, §4
# [7] = test system: pyruvate oxidase (B-0667); assay: as above; type: biochemical, Pediococcus sp. B-0667; details: enzyme from B-0667, no elimination = 100, 0.1 M dimethylglutarate-NaOH buffer for phosphate elimination
# Procedure: as §5, §2, §3, §4
# [8] = biological target: T1, pyruvate oxidase (IFO-12219); assay: as above; type: biochemical, Aerococcus viridans IFO-12219; details: enzyme from IFO-12219, no elimination = 100, 0.1 M dimethylglutarate-NaOH buffer for phosphate elimination
# Procedure: as §5, §2, §3, §4
Compound,Relative activity (%) [1] [%],Relative activity (%) [2] [%],Relative activity (%) [3] [%],Relative activity (%) [4] [%],Effect on the enzyme (inhibited / activated) (pyruvate oxidase),Requirement of the enzyme for the substance (cofactor / substrate) (pyruvate oxidase),"Relative activity (%), substance eliminated [5] [%]","Relative activity (%), substance eliminated [6] [%]","Relative activity (%), substance eliminated [7] [%]","Relative activity (%), substance eliminated [8] [%]"
[Ba+2].[Cl-].[Cl-] [BaCl2],58.8,23.9,28.8,20.6,,,,,,
[Cl][Mn][Cl] [MnCl2],102.7,116.2,111.0,129.1,activated,,,,,
phosphate,,,,,,requires,0,0,0,0
[Cl-].[Cl-].[Zn+2] [ZnCl2],38.2,14.9,22.8,16.0,,,,,,
"Cc1cc2nc3c(=O)[nH]c(=O)nc-3n(C[C@H](O)[C@H](O)[C@H](O)COP(=O)(O)OP(=O)(O)OC[C@H]3O[C@@H](n4cnc5c(N)ncnc54)[C@H](O)[C@@H]3O)c2cc1C [FAD, flavin adenine dinucleotide]",,,,,,requires,,100,33.9,32.7
[Ca+2].[Cl-].[Cl-] [CaCl2],75.0,83.4,78.7,69.4,activated,,,,,
[Cl-].[Cl-].[Co+2] [CoCl2],81.1,85.0,84.0,81.3,activated,,,,,
[Cl-].[Cl-].[Mg+2] [MgCl2],100,100,100,100,activated,,,,,
"Cc1ncc(C[n+]2csc(CCO[P@](=O)(O)OP(=O)(O)O)c2C)c(N)n1 [Thiaminepyrophosphate, thiamine pyrophosphate]",,,,,,requires,,0,0,0
"O=C(O)CN(CCN(CC(=O)O)CC(=O)O)CC(=O)O [EDTA, ethylene-diaminetetraacetic acid]",0,0,,0,inhibited,,,,,
